Measurements taken from patent US20240366807A1, “RADIOFLUORINATED AGENTS FOR PET IMAGING SELECTIVELY TARGETING FIBROBLAST ACTIVATION PROTEIN” (Trustees of tufts college, priority 2021, published 2024).
Like-named read-outs stand apart in the source and are kept apart here.

Key:
[1] = target: recombinant human FAP (Homo sapiens (Human), UniProt Q12884); assay: In vitro enzyme IC50 assay, FAP; assay type: biochemical; details: for IC50: read-out: FAP Inhibition (IC50)
Excerpt: (§1) The peptide libraries XPYSWS-NH2, Ac-XPYSWS-NH2, GXYSWS-NH2, and Ac-GXYSWS-NH2, where X represents all natural amino acids except cysteine were synthesized by the Tufts University Core Facility. The DPPIV enzyme used for the specificity studies was previously purified by our laboratory at Tufts University from human placenta, and the purified human FAP enzyme used for these studies was kindly provided by Syrxx, Inc. For the in vitro IC50 determination assays, recombinant human DPPIV, DPP9, FAP, and PREP were purchased from R&D Systems, and DPP8 was from Biomol International. Buffer systems used were A (25 mM Tris, pH 8.0), B (50 mM Tris, pH 7.5), C (50 mM Tris, 140 mM NaCl, pH 7.5), D (25 mM Tris, 250 mM NaCl, pH 7.5), and E (20 mM Tris, 20 mM KCl, pH 7.4).
(§2) In Vitro Enzyme IC50 Assays
(§3) Enzymatic activity of DPPIV, DPP8, DPP9, FAP, and PREP was measured at 25° C. on a Molecular Devices M2^e multidetection microtiter plate reader, monitoring the fluorescence at an excitation wavelength of 380 nm and an emission wavelength of 460 nm. The substrate was either H-Gly-Pro-AMC for the DPPIV, DPP8, and DPP9 assays or Z-Gly-Pro-AMC for the FAP and PREP assays.
(§4) A (DPPIV and DPP9), buffer B (DPP8), buffer C (FAP), or buffer D (PREP) and a suitable amount of inhibitor (ranging between 10^−4 and 10^−11M) in a total volume of 210 μL. The final enzyme concentrations were 0.1, 0.8, 0.4, 1.2, and 0.6 nM for DPPIV, DPP8, DPP9,
(§5) FAP, and PREP, respectively. […] Those prepared in pH 2.0 solution were preincubated at 25° C. for 4 h prior to dilution. Immediately prior to the commencement of the experiment, the 100 mM stocks were further diluted to 10^−3M in the appropriate assay buffer, from which 1:10 serial dilutions were prepared. All inhibitors were tested in triplicate.

[2] = target: recombinant human PREP (Homo sapiens (Human), UniProt P48147); assay: In vitro enzyme IC50 assay, PREP; assay type: biochemical; details: read-out: PREP Inhibition (IC50)
Excerpt: as §1, §2, §3, §4, §5

Chain of recombinant human FAP (Q12884 whole entry): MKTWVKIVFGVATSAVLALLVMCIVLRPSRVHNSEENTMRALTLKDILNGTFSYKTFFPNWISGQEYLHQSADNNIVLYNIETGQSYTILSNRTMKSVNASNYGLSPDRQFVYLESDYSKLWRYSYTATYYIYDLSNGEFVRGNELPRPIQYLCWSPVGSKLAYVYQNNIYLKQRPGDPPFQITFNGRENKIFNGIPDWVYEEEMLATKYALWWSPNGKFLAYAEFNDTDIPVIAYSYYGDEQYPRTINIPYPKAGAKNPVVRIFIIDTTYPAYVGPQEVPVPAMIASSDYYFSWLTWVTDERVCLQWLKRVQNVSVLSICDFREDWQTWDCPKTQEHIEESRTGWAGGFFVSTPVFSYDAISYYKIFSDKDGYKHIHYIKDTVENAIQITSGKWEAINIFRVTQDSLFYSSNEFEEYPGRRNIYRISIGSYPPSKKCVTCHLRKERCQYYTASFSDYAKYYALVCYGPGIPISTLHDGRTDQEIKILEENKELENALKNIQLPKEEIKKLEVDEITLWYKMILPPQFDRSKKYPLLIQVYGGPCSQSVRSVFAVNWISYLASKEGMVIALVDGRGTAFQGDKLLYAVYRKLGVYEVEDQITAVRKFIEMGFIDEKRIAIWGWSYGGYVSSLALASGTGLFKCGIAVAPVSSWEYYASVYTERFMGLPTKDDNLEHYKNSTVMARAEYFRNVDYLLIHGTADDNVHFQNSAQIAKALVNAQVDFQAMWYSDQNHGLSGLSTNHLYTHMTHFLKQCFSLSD
Chain of recombinant human PREP (P48147 whole entry): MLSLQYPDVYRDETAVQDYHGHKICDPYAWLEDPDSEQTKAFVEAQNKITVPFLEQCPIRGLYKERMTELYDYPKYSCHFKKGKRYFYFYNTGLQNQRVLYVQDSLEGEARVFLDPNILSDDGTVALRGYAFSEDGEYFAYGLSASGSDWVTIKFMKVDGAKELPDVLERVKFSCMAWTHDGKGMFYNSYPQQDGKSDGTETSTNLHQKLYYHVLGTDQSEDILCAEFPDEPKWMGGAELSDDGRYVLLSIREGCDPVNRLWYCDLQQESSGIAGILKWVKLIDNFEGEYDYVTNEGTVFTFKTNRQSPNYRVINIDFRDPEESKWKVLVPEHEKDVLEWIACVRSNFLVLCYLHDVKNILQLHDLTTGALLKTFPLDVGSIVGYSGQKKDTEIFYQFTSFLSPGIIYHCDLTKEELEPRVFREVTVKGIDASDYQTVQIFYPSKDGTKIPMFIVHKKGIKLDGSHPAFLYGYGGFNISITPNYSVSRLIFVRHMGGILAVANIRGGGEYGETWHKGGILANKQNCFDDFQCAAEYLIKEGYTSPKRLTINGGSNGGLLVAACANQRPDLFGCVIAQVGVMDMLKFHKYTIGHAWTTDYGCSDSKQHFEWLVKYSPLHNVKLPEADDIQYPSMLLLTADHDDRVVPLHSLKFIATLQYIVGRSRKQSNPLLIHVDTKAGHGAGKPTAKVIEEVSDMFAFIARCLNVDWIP

Row | Structure (SMILES) | FAP Selectivity, IC50(PREP)/IC50(FAP) ([1]; pH2.0) | IC50 ([1]; pH2.0) | FAP Selectivity, IC50(PREP)/IC50(FAP) ([1]; pH7.5) | IC50 ([1]; pH7.5) | IC50 ([2]; pH2.0) | IC50 ([2]; pH7.5)
1 | C[C@@H](NC(=O)c1c(F)c(F)c(F)c(F)c1F)C(=O)N1CCC[C@H]1B(O)O | 2.7 | 0.45 µM | 4.5 | 0.33 µM | 1.2 µM | 1.5 µM
2 | C[C@@H](NC(=O)c1ccc(OCF)cc1)C(=O)N1CCC[C@H]1B(O)O | 8.3 | 0.24 µM | 7.9 | 0.24 µM | 2 µM | 1.9 µM
3 | C[C@@H](NC(=O)c1cccc(OCF)c1)C(=O)N1CCC[C@H]1B(O)O | 0.37 | 0.13 µM | 0.41 | 0.13 µM | 0.048 µM | 0.053 µM
4 | C[C@@H](NC(=O)c1cc(F)ncc1F)C(=O)N1CCC[C@H]1B(O)O | 14 | 0.14 µM | 16 | 0.14 µM | 2 µM | 2.3 µM
5 | C[C@@H](NC(=O)c1ccnc(F)c1F)C(=O)N1CCC[C@H]1B(O)O | 15 | 0.13 µM | 15 | 0.15 µM | 1.9 µM | 2.2 µM

The remaining lines, values ahead:

Row | FAP Selectivity, IC50(PREP)/IC50(FAP) ([1]; pH2.0) | IC50 ([1]; pH2.0) | FAP Selectivity, IC50(PREP)/IC50(FAP) ([1]; pH7.5) | IC50 ([1]; pH7.5) | IC50 ([2]; pH2.0) | IC50 ([2]; pH7.5) | Structure (SMILES)
6 | 19 | 0.22 µM | 22 | 0.26 µM | 4.1 µM | 5.7 µM | C[C@@H](NC(=O)c1ccc(F)cc1)C(=O)N1CCC[C@H]1B(O)O
7 | 5.6 | 0.39 µM | 4.8 | 0.65 µM | 2.2 µM | 3.1 µM | C[C@@H](NC(=O)c1ccccc1F)C(=O)N1CCC[C@H]1B(O)O
8 | 1.1 | 0.69 µM | 3.6 | 0.39 µM | 0.79 µM | 1.4 µM | C[C@@H](NC(=O)c1ccc(F)cc1F)C(=O)N1CCC[C@H]1B(O)O
9 | 23 | 0.1 µM | 19 | 0.13 µM | 2.3 µM | 2.5 µM | C[C@@H](NC(=O)c1cc(F)nc(F)c1)C(=O)N1CCC[C@H]1B(O)O
